What all share (format): biochemical
Assay [1] addresses T1, JAK2 (Homo sapiens, UniProt O60674).
T1 construct: 5 μl of catalytic domain recombinant Kinase enzyme+Tyr peptide substrate (Invitrogen, CA); purchased Invitrogen
Description: Z'-LYTE kinase assay JAK2. As to the method:
(§1) JAK and TYK2 tyrosine phosphorylation activity is measured using the Z′-LYTE™ Technology developed by Invitrogen Corporation (Carlsbad, Calif.). For JAK1, JAK2 and JAK3 the Z′-LYTE™ Kinase Assay Kit-Tyr6 Peptide (part number PV4122) was used. For TYK2 the Z′-LYTE™ Kinase Assay Kit-Tyr6 Peptide (part number PV3192) was used. The Z′-LYTE™ biochemical assay employs a fluorescence resonance energy transfer (FRET) coupled-enzyme format and is based on the differential sensitivity of phosphorylated and non-phosphorylated peptides to proteolitic cleavage. The assay uses a synthetic peptide substrate that is labelled with a donor fluorophore (coumarin) and an acceptor fluorophore (fluorescein) that make up a FRET pair. In the primary reaction (the Kinase Reaction), the kinase transfers the γ-phosphate of ATP to a single tyrosine residue on the substrate, while the presence of a kinase inhibitor in the primary reaction suppresses phosphorylation. In the secondary reaction (the Development Reaction), a site-specific protease (the Development Reagent) is added. The development buffer quenches the Kinase Reaction, while the protease recognizes and cleaves non-phosphorylated Z′-LYTE™ peptide substrate. Cleavage disrupts FRET between the donor and acceptor fluorophores on the non-phosphoryleted substrate, while uncleaved, phosphorylated substrate maintains FRET.
(§2) To test the ability of candidate molecules to inhibit JAK tyrosine phosphorylation activity, molecules are reconstituted in 100% DMSO and serially diluted 1:10 in polypropylene v-bottom microtiter plates. The candidate molecules are then diluted 1:25 into kinase buffer and 2.5 μl transferred into duplicate wells of a 384 well low volume black microtiter assay plate (Corning, USA). The final DMSO concentration in the assay is 1%. The kinase reaction contains 2.5 μl of a candidate molecule, 5 μl of catalytic domain recombinant Kinase enzyme+Tyr peptide substrate (Invitrogen, CA) and 2.5 μl ATP (Invitrogen, CA). The kinase reaction is allowed to procede for 1 hour at room temperature. The protease reaction is initiated by the addition of 5 μl Development Reagent (Invitrogen, CA). After 1 hour incubation at room temperature the fluorescence is measured using a FlexStation plate reader (Molecular Devices, Sunnyvale, Calif.).

In assay [2] the target is T2, JAK1 (Homo sapiens, UniProt P23458).
T2 construct: 5 μl of catalytic domain recombinant Kinase enzyme+Tyr peptide substrate (Invitrogen, CA); purchased Invitrogen
T2 sequence (P23458 875-1153 limits assumed): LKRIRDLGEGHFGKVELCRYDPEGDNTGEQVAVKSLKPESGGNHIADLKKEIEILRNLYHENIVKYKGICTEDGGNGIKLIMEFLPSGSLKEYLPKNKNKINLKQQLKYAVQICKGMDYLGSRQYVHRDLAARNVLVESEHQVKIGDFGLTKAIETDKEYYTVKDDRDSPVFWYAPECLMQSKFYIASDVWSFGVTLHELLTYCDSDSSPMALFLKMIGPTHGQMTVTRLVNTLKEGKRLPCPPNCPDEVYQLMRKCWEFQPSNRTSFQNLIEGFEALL
As to the kind of experiment: Z'-LYTE kinase assay JAK1. As to the method:
as §1, §2

The target of assay [3] is T3, JAK3 (Homo sapiens, UniProt P52333).
T3 construct: 5 μl of catalytic domain recombinant Kinase enzyme+Tyr peptide substrate (Invitrogen, CA); purchased Invitrogen
T3 sequence (P52333 822-1111 limits assumed): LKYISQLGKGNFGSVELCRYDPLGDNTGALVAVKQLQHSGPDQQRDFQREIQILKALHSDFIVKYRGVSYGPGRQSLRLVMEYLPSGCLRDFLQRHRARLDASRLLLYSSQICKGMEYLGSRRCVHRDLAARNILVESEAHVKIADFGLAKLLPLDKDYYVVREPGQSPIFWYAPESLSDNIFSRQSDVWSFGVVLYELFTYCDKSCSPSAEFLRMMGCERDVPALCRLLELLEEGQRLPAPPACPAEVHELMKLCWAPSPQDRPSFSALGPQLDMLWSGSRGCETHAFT
Description: Z'-LYTE kinase assay JAK3. As to the method:
as §1, §2

T1 sequence (O60674 849-1124 limits assumed): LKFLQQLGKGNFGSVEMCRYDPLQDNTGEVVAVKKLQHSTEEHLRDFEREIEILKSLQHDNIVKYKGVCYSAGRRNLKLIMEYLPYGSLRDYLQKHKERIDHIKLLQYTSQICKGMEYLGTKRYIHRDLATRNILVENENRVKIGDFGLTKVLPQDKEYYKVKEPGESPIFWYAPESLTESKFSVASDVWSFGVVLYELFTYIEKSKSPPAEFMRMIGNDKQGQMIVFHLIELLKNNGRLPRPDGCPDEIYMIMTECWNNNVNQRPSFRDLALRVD

The IC50 is the point on the concentration scale where inhibition reaches its midpoint. Lower therefore signals greater potency. Regarding `CN(C)C(=O)c1cccc(Nc2cc(NCC3CCCC3)c(C(N)=O)cn2)c1` [Example 95, 4-(cyclopentylmethylamino)-6-(3-(dimethylcarbamoyl)phenylamino)nicotinamide], the IC50 in assay [1] lay within 100 to 1000 nM; in assay [2] it was 100 to 1000 nM; in assay [3] it was 10 to 100 nM.

With `CN(C)C(=O)c1ccc(Nc2cc(NCC3CCCC3)c(C(N)=O)cn2)cc1` [Example 96, 4-(cyclopentylmethylamino)-6-(4-(dimethylcarbamoyl)phenylamino)nicotinamide], the half-inhibitory concentration (IC50) fell in the range of 100 to 1000 nM in assay [1], 100 to 1000 nM in assay [2] and 10 to 100 nM in assay [3].

As to `CN(C)S(=O)(=O)c1ccc(Nc2cc(NCC3CCCC3)c(C(N)=O)cn2)cc1` [Example 97, 4-(cyclopentylmethylamino)-6-(4-(N,N-dimethylsulfamoyl)phenylamino)nicotinamide], the IC50 in assay [1] was more than 1000 nM; in assay [2], more than 1000 nM; in assay [3] it was 100 to 1000 nM.

Consider `CN(C)S(=O)(=O)c1ccc(Nc2cc(NCc3cc(F)ccc3F)c(C(N)=O)cn2)cc1` [Example 98, 4-(2,5-difluorobenzylamino)-6-(4-(N,N-dimethylsulfamoyl)phenylamino)nicotinamide], for which the IC50 in assay [1] is 100 to 1000 nM; in assay [2] it was more than 1000 nM; in assay [3] it was 10 to 100 nM.

As for `NC(=O)c1cnc(Nc2cccc(C(=O)N3CCC3)c2)cc1NCc1cc(F)ccc1F` [Example 99, 6-(3-(azetidine-1-carbonyl)phenylamino)-4-(2,5-difluorobenzylamino)nicotinamide], the half-inhibitory concentration (IC50) in assay [1] fell in the range of 100 to 1000 nM; in assay [2] it was 100 to 1000 nM; in assay [3], 1 to 10 nM.

For `COc1ccc(Nc2cc(NCc3cccc(F)c3F)c(C(N)=O)cn2)cc1` [Example 101, 4-(2,3-difluorobenzylamino)-6-(4-methoxyphenylamino)nicotinamide], the IC50 in assay [1] was more than 1000 nM; in assay [2], more than 1000 nM; in assay [3] it was 10 to 100 nM.

In the case of `NC(=O)c1cnc(Nc2ccc(C3CCN(S(=O)(=O)C4CC4)CC3)cc2)cc1NCc1ccccc1F` [Example 113, 6-(4-(1-(cyclopropylsulfonyl)piperidin-4-yl)phenylamino)-4-(2-fluorobenzylamino)nicotinamide], the IC50 in assay [1] is more than 1000 nM; in assay [2] it was more than 1000 nM; in assay [3], 10 to 100 nM.

As for `N#CC1(C(=O)N2CCC(c3ccc(Nc4cc(NCc5ccccc5F)c(C(N)=O)cn4)cc3)CC2)CC1` [Example 118, 6-(4-(1-(1-cyanocyclopropanecarbonyl)piperidin-4-yl)phenylamino)-4-(2-fluorobenzylamino)nicotinamide], the IC50 was more than 1000 nM in assay [1], more than 1000 nM in assay [2] and 10 to 100 nM in assay [3].

For the molecule `NC(=O)c1cnc(Nc2cccc(C3CCNCC3)c2)cc1NCc1ccccc1F` [Example 120, 4-(2-fluorobenzylamino)-6-(3-(piperidin-4-yl)phenylamino)nicotinamide], the IC50 in assay [1] was in the range of 10 to 100 nM; in assay [2], 100 to 1000 nM; in assay [3] it was 1 to 10 nM.

In the case of `CS(=O)(=O)N1CCC(c2cccc(Nc3cc(NCc4ccccc4F)c(C(N)=O)cn3)c2)CC1` [Example 121, 4-(2-fluorobenzylamino)-6-(3-(1-(methylsulfonyl)piperidin-4-yl)phenylamino)nicotinamide], the IC50 in assay [1] lay in the range of 100 to 1000 nM; in assay [2], 100 to 1000 nM; in assay [3], 10 to 100 nM.

In the case of `CC(=O)N1CCN(c2ccc(Nc3cc(N[C@H]4CC[C@@H](O)CC4)c(C(N)=O)cn3)cc2)CC1` [Example 123, 6-(4-(4-acetylpiperazin-1-yl)phenylamino)-4-((cis)-4-hydroxycyclohexylamino)nicotinamide], the values for the IC50 in assay [1], in assay [2] and in assay [3] were 100 to 1000 nM, 100 to 1000 nM and 10 to 100 nM, respectively.

Turning to `CCC(=O)N1CCN(c2ccc(Nc3cc(NC4(c5ccccc5)CC4)c(C(N)=O)cn3)cc2)CC1` [Example 124, 4-(1-phenylcyclopropylamino)-6-(4-(4-propionylpiperazin-1-yl)phenylamino)nicotinamide], the half-maximal inhibitory concentration (IC50) was 100 to 1000 nM in assay [1], more than 1000 nM in assay [2] and 10 to 100 nM in assay [3].

Take `NC(=O)c1cnc(Nc2ccc(N3CCOCC3)cc2)cc1NC1(c2ccccc2)CC1` [Example 125, 6-(4-morpholinophenylamino)-4-(1-phenylcyclopropylamino)-nicotinamide]: the figures for the IC50 in assay [1], in assay [2] and in assay [3] were 100 to 1000 nM, more than 1000 nM and 10 to 100 nM, respectively.

In the case of `NC(=O)c1cnc(Nc2ccc(CN3CCOCC3)cc2)cc1NC1(c2ccccc2)CC1` [Example 127, 6-(4-(morpholinomethyl)phenylamino)-4-(1-phenylcyclopropylamino)nicotinamide], the IC50 in assay [1] was 100 to 1000 nM; in assay [2], more than 1000 nM; in assay [3], 10 to 100 nM.

Turning to `NC(=O)c1cnc(Nc2cccc(N3CCOCC3)c2)cc1NC1(c2ccccc2)CC1` [Example 128, 6-(3-morpholinophenylamino)-4-(1-phenylcyclopropylamino)-nicotinamide], the IC50 in assay [1] is more than 1000 nM; in assay [2], more than 1000 nM; in assay [3] it was 10 to 100 nM.

For `NC(=O)c1cnc(Nc2cccc(CN3CCOCC3)c2)cc1NC1(c2ccccc2)CC1` [Example 129, 6-(3-(morpholinomethyl)phenylamino)-4-(1-phenylcyclopropylamino)nicotinamide], the IC50 in assay [1] is 100 to 1000 nM; in assay [2], more than 1000 nM; in assay [3], 10 to 100 nM.

On to `NC(=O)c1cnc(Nc2ccc(N3CCC(F)(F)CC3)cc2)cc1NC1(c2ccccc2)CC1` [Example 131, 6-(4-(4,4-difluoropiperidin-1-yl)phenylamino)-4-(1-phenylcyclopropylamino)nicotinamide], for which the IC50 in assay [1] is more than 1000 nM; in assay [2], more than 1000 nM; in assay [3], 100 to 1000 nM.

For `NC(=O)c1cnc(Nc2ccc(OCCN3CCCC3)cc2)cc1NC1(c2ccccc2)CC1` [Example 132, 4-(1-phenylcyclopropylamino)-6-(4-(2-(pyrrolidin-1-yl)ethoxy)phenylamino)nicotinamide], the IC50 in assay [1] is 100 to 1000 nM; in assay [2] it was more than 1000 nM; in assay [3], 10 to 100 nM.

With `NC(=O)c1cnc(Nc2ccc(OCC(=O)N3CCOCC3)cc2)cc1NC1(c2ccccc2)CC1` [Example 133, 6-(4-(2-morpholino-2-oxoethoxy)phenylamino)-4-(1-phenylcyclopropylamino)nicotinamide], the IC50 in assay [1] is 100 to 1000 nM; in assay [2], more than 1000 nM; in assay [3], 10 to 100 nM.

`NC(=O)c1cnc(Nc2cccc(OCC(=O)N3CCOCC3)c2)cc1NC1(c2ccccc2)CC1` [Example 134, 6-(3-(2-morpholino-2-oxoethoxy)phenylamino)-4-(1-phenylcyclopropylamino)nicotinamide]: the IC50 in assay [1] is more than 1000 nM; in assay [2], more than 1000 nM; in assay [3] it was 10 to 100 nM.

For the molecule `CC(=O)Nc1cccc(Nc2cc(NC3(c4ccccc4)CC3)c(C(N)=O)cn2)c1` [Example 135, 6-(3-acetamidophenylamino)-4-(1-phenylcyclopropylamino)nicotinamide], the figures for the IC50 in assay [1], in assay [2] and in assay [3] were more than 1000 nM, more than 1000 nM and 100 to 1000 nM, respectively.

The values above are taken from patent US20150353495A1 (PORTOLA PHARMACEUTICALS, INC., priority 2010, published 2015).
